Reference: patent US5084082A, “Soybean plants with dominant selectable trait for herbicide resistance” (priority 1990, dated 1992)
“Also recorded” adds a separate entry of the source.

What was measured:
Type in all cases: in vivo, soybean
Mutant 1-184A = assay: Test A postemergence herbicide spray, greenhouse pots
From the text: (§1) In the first post-emergence test, two true-breeding resistant mutant lines, W19 and W20, were compared to previously isolated tolerant mutants and wild-type Williams 82. Eighteen pots (20 cm diameter) of each soybean line (2 seeds per pot) were planted using a standard sterile potting mix. When the seedlings reached the second trifoliolate stage, plants were thinned back to one plant per pot. Each pot was then sprayed with a specific herbicide treatment using a conveyor belt spray apparatus to emulate field application. The nine different herbicide treatments included one rate (8 g/ha) of Compound 1 and two rates (8 and 32 g/ha) each of four other sulfonylurea herbicides (Compounds 2,3,7 and 8) (see Table VI) using a factorial treatment design with 2 replications.
(§2) In both postemergence tests, plants were returned to the greenhouse after treatment and provided with ample light, moisture, and nutrients to support healthy plant growth. Two to three ratings per pot were recorded over a three-week period and averaged to obtain a single value for each pot For each herbicide, analysis of variance on injury ratings was performed separately. Fisher's least significant difference (LSD) was used to determine the significance of line mean differences at each herbicide rate using the 95% level of confidence. […]

Williams 82 [1] = assay: as above
From the text: as §1, §2

mutant W19 = assay: as above
From the text: as §1, §2

mutant W20 = assay: as above
From the text: as §1, §2

Williams 82 [2] = assay: Test B postemergence cross resistance test; details: Glycine max, post-emergence; for soybean crop injury at 2 g/ha: Wm 82, 2 g/ha postemergence
In short: (§3)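 Cross resistance of true-breeding resistant mutants is assessed against Williams 82 using 11 ALS-inhibiting herbicides applied postemergence at two rates each. Per-pot values are means of two or three ratings over a three-week period, and line means are separated by Fisher's LSD at 95% confidence.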

mutant line W17 = assay: Test B postemergence cross resistance test; details: Glycine max, post-emergence; for soybean crop injury (%) at 2 g/ha: W17, 2 g/ha postemergence
In short: as §3

mutant line W19 = assay: Test B postemergence cross resistance test; details: Glycine max, post-emergence; for percent soybean crop injury at 2 g/ha: W19, 2 g/ha postemergence
In short: as §3

mutant line W23 = assay: Test B postemergence cross resistance test; details: Glycine max, post-emergence
In short: as §3

mutant line W28 = assay: Test B postemergence cross resistance test; details: Glycine max, post-emergence; for mean % injury to soybean at 2 g/ha: W28, 2 g/ha postemergence
In short: as §3

mutant line W4 = assay: Test B postemergence cross resistance test; details: Glycine max, post-emergence; for % crop injury at 2 g/ha: W4, 2 g/ha postemergence
In short: as §3

mutant line W20 = assay: Test B postemergence cross resistance test; details: Glycine max, post-emergence
In short: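 Soybean mutant lines and Williams 82 sprayed postemergence at the second trifoliolate stage with ALS inhibitors (sulfonylureas, imidazolinones), each at two rates. Injury rated two to three times per pot over three weeks in the greenhouse and averaged; ANOVA per herbicide, Fisher's LSD at 95%.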

W20 seedlings = assay: Large-scale hydroponic screening pilot with Compound 8; details: 300 ppb used to irrigate the hydroponic system
From the text: The first screening protocol used was identical to the "Large-Scale Hydroponic Screening System" described previously except for the fact that 300 ppb of Compound 8 was used as the selective agent instead of 100 ppb of Compound 1. […] Rare seedlings developing true leaves became very obvious against the background of inhibited seedlings.

W20 = assay: Seed soak test with Compound 8; details: W20, seeds soaked 16 hours in 2 ppm solution
Procedure: The second screening protocol was carried out as follows: samples of seed from W20 were tested for preemergence tolerance to Compound 8 by soaking seeds in a 2.0 ppm buffered solution of Compound 8 for 16 hours, rinsing, and planting in flats in a greenhouse.
The original W4-4 M2 plant was allowed to self pollinate, mature, and produced a family of M3 seeds. An M3 progeny test was then conducted to determine if the new resistance phenotype was heritable and if the M3 family was true-breeding or segregating for the new resistance trait. The M3 progeny of W4-4 were screened for resistance with the same seed soak technique used to select the original W4-4 M2 plant. Twenty seeds each of the W4-4 M3 family, W20 line, and Williams line were soaked for 16 hours in a solution of 2 ppm of Compound 8. Twenty additional seeds of Williams were soaked for 16 hours in plain tap water as a control treatment. Treated seeds were then washed for two minutes in running water. Each seed was then planted in a separate pot for ease of observation.

COc1nc(C)nc(NC(=O)NS(=O)(=O)c2ccccc2Cl)n1 [Compound 1, 2-chloro-N-[[(4-methoxy-6-methyl-1,3,5-triazin-2-yl)amino]carbonyl]benzenesulfonamide]
mean % injury (Mutant 1-184A; 8 g/ha postemergence): 97%
mean % injury (Williams 82 [1]; WM 82, 8 g/ha postemergence): 97%
mean % injury (mutant W19; W19, 8 g/ha postemergence): 12%
mean % injury (mutant W20; W20, 8 g/ha postemergence): 13%
soybean crop injury at 2 g/ha (Williams 82 [2]): 98%
soybean crop injury at 8 g/ha (Williams 82 [2]; Wm 82, 8 g/ha postemergence): 100%
soybean crop injury (%) at 2 g/ha (mutant line W17): 0%
soybean crop injury (%) at 8 g/ha (mutant line W17; W17, 8 g/ha postemergence): 0%
percent soybean crop injury at 2 g/ha (mutant line W19): 0%
percent soybean crop injury at 8 g/ha (mutant line W19; W19, 8 g/ha postemergence): 13%
percent soybean injury at 8 g/ha (mutant line W23; W23, 8 g/ha postemergence): 0%
mean % injury to soybean at 2 g/ha (mutant line W28): 0%
mean % injury to soybean at 8 g/ha (mutant line W28; W28, 8 g/ha postemergence): 0%
% crop injury at 2 g/ha (mutant line W4): 0%
% crop injury at 8 g/ha (mutant line W4; W4, 8 g/ha postemergence): 0%
percent crop injury at 8 g/ha (mutant line W20; W20, 8 g/ha postemergence): 0%

COC(=O)c1cccnc1S(=O)(=O)NC(=O)Nc1nc(OC)cc(OC)n1 [Compound 8, Methyl 2-[[[[(4,6-dimethoxy-2-pyrimidinyl)amino]carbonyl]amino]sulfonyl]-3-pyridinecarboxylate]
mean % injury (Mutant 1-184A; 8 g/ha postemergence): 93%
mean % injury (Mutant 1-184A; 32 g/ha postemergence): 92%
mean % injury (Williams 82 [1]; WM 82, 8 g/ha postemergence): 95%
mean % injury (Williams 82 [1]; WM 82, 32 g/ha postemergence): 95%
mean % injury (mutant W19; W19, 8 g/ha postemergence): 84%
mean % injury (mutant W19; W19, 32 g/ha postemergence): 95%
mean % injury (mutant W20; W20, 8 g/ha postemergence): 93%
mean % injury (mutant W20; W20, 32 g/ha postemergence): 97%
soybean crop injury at 0.5 g/ha (Williams 82 [2]; Wm 82, 0.5 g/ha postemergence): 93%
soybean crop injury at 2 g/ha (Williams 82 [2]): 98%
soybean crop injury (%) at 0.5 g/ha (mutant line W17; W17, 0.5 g/ha postemergence): 26%
soybean crop injury (%) at 2 g/ha (mutant line W17): 83%
percent soybean crop injury at 0.5 g/ha (mutant line W19; W19, 0.5 g/ha postemergence): 29%
percent soybean crop injury at 2 g/ha (mutant line W19): 85%
percent soybean injury at 0.5 g/ha (mutant line W23; W23, 0.5 g/ha postemergence): 21%
percent soybean injury at 2 g/ha (mutant line W23; W23, 2 g/ha postemergence): 70%
mean % injury to soybean at 0.5 g/ha (mutant line W28; W28, 0.5 g/ha postemergence): 53%
mean % injury to soybean at 2 g/ha (mutant line W28): 84%
% crop injury at 0.5 g/ha (mutant line W4; W4, 0.5 g/ha postemergence): 39%
% crop injury at 2 g/ha (mutant line W4): 81%
percent crop injury at 0.5 g/ha (mutant line W20; W20, 0.5 g/ha postemergence): 19%
percent crop injury at 2 g/ha (mutant line W20; W20, 2 g/ha postemergence): 89%
seedling development (W20 seedlings): would not develop true leaves
seedling development after seed soak (W20): uniformly inhibit growth of W20 beyond the stage of emergence and cotyledon expansion; also recorded: had not started to form true leaves
